Laboratory results as given in patent publication US6989371B1, “Bombesin analogs for treatment of cancer” (Dabur Research Foundation, priority 1996, dated 2006).
Non-standard residues stand in square brackets, D forms with d. Residues, ends and D or L forms follow the SMILES beside them. Aib = CC(C)(N)C(=O)O

How the values were obtained:
Assay in all cases: MTT cytotoxicity assay, 72 hours (Example 13)
Type in all cases: cell-based, human
A549 (lung) = tested on: A549 (lung)
Procedure: (§1) The cytotoxic activity of other synthesized bombesin analogs was tested on eight human tumor cell lines namely HT-29, SW620, PTC (all colon), PA-1 (ovary), A549 (lung), HBL100(breast), MOLT-4 (leukemia) and DU145 (prostate). The tumor cells were collected at exponential growth phase and resuspended in medium (1.5×10^6) cells/ml in RPMI 1640 containing 10% FBS). 150 μl of medium was added to the wells of a 96-well tissue culture plate (Nunc, Denmark) followed by 30 μl of cell suspension. The plate was left in incubator (37° C., 5% CO2 overnight. 20 μl of the peptide (10^−7×10^×10M concentration) was added to marked wells of the 96-well plate. Each concentration was plated in cells served as blanks. A total volume of 200 μl was ensured in each well and plate was left in incubator (37° C., 5% CO2). After 72 hours of incubation an MTT assay was performed and percentage cytotoxicity was calculated with respect to control cells. Following tables show the cytotoxicity achieved on various cell lines at different concentrations.

DU145 (prostate) = tested on: DU145 (prostate)
Procedure: as §1

HBL100 (breast) = conditions: HBL
Procedure: as §1

HT-29 (colon) = tested on: HT-29 (colon)
Procedure: as §1

MOLT-4 (leukemia) = tested on: MOLT-4 (leukemia)
Procedure: as §1

PA-1 (ovary) = tested on: PA-1 (ovary)
Procedure: as §1

PTC (colon) = tested on: PTC (colon)
Procedure: as §1

SW620 (colon) = tested on: SW620 (colon)
Procedure: as §1

CC[C@H](C)[C@H](NC(=O)[C@H](Cc1c[nH]cn1)NC(=O)C(C)(C)NC(=O)[C@@H](NC(=O)[C@H](C)NC(=O)[C@H](Cc1c[nH]c2ccccc12)NC(=O)[C@H](CCC(N)=O)NC(=O)[C@H](N)Cc1ccccc1)C(C)C)C(N)=O [SEQ ID: 7, D-Phe-Gln-Trp-Ala-Val-Aib-His-Ile-NH2] (H-[dF]QWAV[Aib]HI-NH2; N-terminus assumed)
Percent Cytotoxicity (A549 (lung); A549, 10 nM): 17.9 ± 0.9% | Percent Cytotoxicity (A549 (lung); A549, 100 nM): 6.7 ± 2.0% | Percent Cytotoxicity (DU145 (prostate); DU145, 10 nM): NIL | Percent Cytotoxicity (DU145 (prostate); DU145, 100 nM): NIL | Percent Cytotoxicity (HBL100 (breast); 1 nM): 12.0 ± 0.7% | Percent Cytotoxicity (HBL100 (breast); 10 nM): 7.0 ± 0.7% | Percent Cytotoxicity (HBL100 (breast); 100 nM): 16.1 ± 3.9% | Percent Cytotoxicity (HBL100 (breast); 100 PM): 4.0 ± 0.6% | Percent Cytotoxicity (HT-29 (colon); HT29, 10 nM): 28.2 ± 2.8% | Percent Cytotoxicity (HT-29 (colon); HT29, 100 nM): 15.5 ± 1.9% | Percent Cytotoxicity (MOLT-4 (leukemia); MOLT4, 1 nM): NIL | Percent Cytotoxicity (MOLT-4 (leukemia); MOLT4, 10 nM): NIL | Percent Cytotoxicity (MOLT-4 (leukemia); MOLT4, 100 nM): 13.1 ± 0.3% | Percent Cytotoxicity (PA-1 (ovary); PA-1, 1 nM): 25.6 ± 2.9% | Percent Cytotoxicity (PA-1 (ovary); PA-1, 10 nM): 22.7 ± 3.4% | Percent Cytotoxicity (PA-1 (ovary); PA-1, 100 nM): 9.6 ± 4.1% | Percent Cytotoxicity (PA-1 (ovary); PA-1, 100 PM): 24.5 ± 4.2% | Percent Cytotoxicity (PTC (colon); 1 nM): 12.4 ± 2.1% | Percent Cytotoxicity (PTC (colon); 10 nM): 7.6 ± 0.7% | Percent Cytotoxicity (PTC (colon); 100 nM): 9.3 ± 1.8% | Percent Cytotoxicity (PTC (colon); 100 PM): 8.2 ± 0.9% | Percent Cytotoxicity (SW620 (colon); SW620, 1 nM): 32.0 ± 5.8% | Percent Cytotoxicity (SW620 (colon); SW620, 10 nM): 20.8 ± 1.9% | Percent Cytotoxicity (SW620 (colon); SW620, 100 nM): 25.4 ± 2.9% | Percent Cytotoxicity (SW620 (colon); SW620, 100 PM): 33.6 ± 5.8%
